We go through 18 compounds from patent US12172983B2, “EGFR inhibitors” (Blueprint Medicines Corporation, priority 2019, dated 2024).

Read-outs that look alike come from different tables or passages of the source.

The target in one assay is T1, EGFR (L858R T790M C797S) (Homo sapiens, UniProt P00533, C797S/L858R/T790M).
T1 construct: purchased SignalChem E10-122VG
The experiment in a line: Biochemical EGFR inhibition assay (Caliper mobility shift), EGFR LRTMCS mutant. The note with it: inhibitory activity against EGFR LRTMCS mutant; apparent IC50; read-out: Ext Enz LRTMCS. In a few lines: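 Apparent IC50s were derived by plotting percent activity against the log of compound concentration. Activity was measured as phosphopeptide electrophoretically separated from substrate, after reactions at room temperature reached 10% to 20% phosphorylation and were halted with 35 mM EDTA.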

The test system of assay [1] is phosphorylation of EGFR (Tyr1068) in NCI-H1975 cell line that harbors the EGFR L858R T790M mutations. Nature of the assay: NCI-H1975 pEGFR AlphaLISA assay. In kind it is cell-based. Particulars: 4-5 hours incubation, read-out: Ext pEGFR H1975. In a few lines:
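NCI-H1975 cells (EGFR L858R/T790M) seeded overnight, then treated with compound for 4-5 h at 37 °C/5% CO2. After lysis, p-EGFR (Tyr1068) quantified by AlphaLISA SureFire Ultra with acceptor then donor beads; IC50 fitted from percent inhibition versus log concentration.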

The mark [2] stands for this setting: Homo sapiens, NCI-H1975, inhibition of phosphorylation of mutant EGFR in NCI-H1975 cells.

T1 sequence (P00533 25-1210 T790M/C797S/L858R): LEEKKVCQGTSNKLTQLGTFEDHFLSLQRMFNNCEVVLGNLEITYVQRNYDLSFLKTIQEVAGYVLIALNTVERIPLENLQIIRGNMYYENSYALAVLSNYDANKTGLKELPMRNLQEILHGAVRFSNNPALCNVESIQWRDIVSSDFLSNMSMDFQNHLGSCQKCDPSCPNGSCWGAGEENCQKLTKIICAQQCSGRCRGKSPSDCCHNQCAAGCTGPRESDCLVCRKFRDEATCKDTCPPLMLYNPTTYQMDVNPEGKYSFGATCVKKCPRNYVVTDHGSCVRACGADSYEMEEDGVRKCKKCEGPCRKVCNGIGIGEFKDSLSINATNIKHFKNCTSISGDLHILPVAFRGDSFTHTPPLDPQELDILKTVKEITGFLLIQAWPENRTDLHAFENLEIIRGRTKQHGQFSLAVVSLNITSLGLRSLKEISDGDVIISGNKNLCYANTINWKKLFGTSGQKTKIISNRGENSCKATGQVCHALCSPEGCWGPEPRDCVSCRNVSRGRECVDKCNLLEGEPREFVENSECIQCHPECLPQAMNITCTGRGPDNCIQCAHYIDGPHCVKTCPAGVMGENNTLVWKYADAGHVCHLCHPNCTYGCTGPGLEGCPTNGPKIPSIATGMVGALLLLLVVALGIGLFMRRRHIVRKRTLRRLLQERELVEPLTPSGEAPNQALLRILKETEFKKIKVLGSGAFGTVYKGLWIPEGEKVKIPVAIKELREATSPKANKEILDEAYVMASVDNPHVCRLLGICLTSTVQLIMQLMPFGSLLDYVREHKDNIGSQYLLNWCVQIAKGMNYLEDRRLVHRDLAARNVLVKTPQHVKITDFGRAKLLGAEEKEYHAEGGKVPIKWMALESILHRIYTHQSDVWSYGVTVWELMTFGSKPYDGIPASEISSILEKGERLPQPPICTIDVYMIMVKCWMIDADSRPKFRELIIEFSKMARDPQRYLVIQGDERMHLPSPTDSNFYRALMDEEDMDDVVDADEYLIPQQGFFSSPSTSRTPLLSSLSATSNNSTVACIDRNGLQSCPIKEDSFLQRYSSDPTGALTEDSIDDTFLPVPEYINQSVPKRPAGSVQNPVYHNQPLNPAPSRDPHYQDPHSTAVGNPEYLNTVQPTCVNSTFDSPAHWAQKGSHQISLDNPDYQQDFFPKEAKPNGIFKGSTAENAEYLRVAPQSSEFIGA

As to `CO[C@@H]1[C@H](F)CN(c2nccc(Nc3cc4c(C(C)C)ccc(N5C[C@H](CS(C)(=O)=O)[C@H]5C)c4cn3)n2)C[C@@H]1O` (single isomer, unassigned) [Compound 202, (3S,4S,5R)-5-fluoro-1-[4-({8-[(2R,3S)-3-(methanesulfonylmethyl)-2-methylazetidin-1-yl]-5-(propan-2-yl)isoquinolin-3-yl}amino)pyrimidin-2-yl]-4-methoxypiperidin-3-ol or (3R,4R,5S)-5-fluoro-1-[4-({8-[(2R,3S)-3-(methanesulfonylmethyl)-2-methylazetidin-1-yl]-5-(propan-2-yl)isoquinolin-3-yl}amino)pyrimidin-2-yl]-4-methoxypiperidin-3-ol], the IC50 was 20.1 to 30 nM at EGFR (L858R T790M C797S) and 10.1 to 20 nM in assay [1] (setting [2]).

`CC(C)c1ccc(N2C[C@H](CS(C)(=O)=O)[C@H]2C)c2cnc(Nc3cnnc(N4CC[C@@](C)(O)[C@@H](F)C4)n3)cc12` (single isomer, unassigned) [Compound 142]: the IC50 at EGFR (L858R T790M C797S) was at most 15 nM; in assay [1] (setting [2]), 20.1 to 30 nM.

As to `COCCO[C@H]1CCN(c2nccc(Nc3cc4c(C(C)C)ccc(N5CC(CS(C)(=O)=O)C5)c4cn3)n2)C[C@H]1O` (racemic) [Compound 226, (3R,4S)-1-[4-[[5-isopropyl-8-[3-(methylsulfonylmethyl)azetidin-1-yl]-3-isoquinolyl]amino]pyrimidin-2-yl]-4-(2-methoxyethoxy)piperidin-3-ol and (3S,4R)-1-[4-[[5-isopropyl-8-[3-(methylsulfonylmethyl)azetidin-1-yl]-3-isoquinolyl]amino]pyrimidin-2-yl]-4-(2-methoxyethoxy)piperidin-3-ol], the IC50 at EGFR (L858R T790M C797S) was 30.1 to 100 nM; in assay [1] (setting [2]), 30.1 to 50 nM.

With `CC(C)c1ncc(N2C[C@H](CS(C)(=O)=O)[C@H]2C)c2cnc(Nc3ccnc(N4CC[C@@H](O)[C@@](C)(F)C4)n3)cc12` (single isomer, unassigned) [Compound 129], the IC50 is at most 15 nM at EGFR (L858R T790M C797S) and at most 10 nM in assay [1] (setting [2]).

In the case of `CC(C)c1ccc(N2C[C@H](CS(C)(=O)=O)[C@H]2C)c2cnc(Nc3ccnc(N4CC[C@H](O)C[C@@H]4C)n3)cc12` (single isomer, unassigned) [Compound 47, (2S,4S)-1-[4-({8-[(2R,3S)-3-(methanesulfonylmethyl)-2-methylazetidin-1-yl]-5-(propan-2-yl)isoquinolin-3-yl}amino)pyrimidin-2-yl]-2-methylpiperidin-4-ol or (2R,4R)-1-[4-({8-[(2R,3S)-3-(methanesulfonylmethyl)-2-methylazetidin-1-yl]-5-(propan-2-yl)isoquinolin-3-yl}amino)pyrimidin-2-yl]-2-methylpiperidin-4-ol], the IC50 at EGFR (L858R T790M C797S) was 15.1 to 20 nM; in assay [1] (setting [2]), at most 10 nM.

Regarding `CO[C@H]1CCN(c2nccc(Nc3cc4c(C(C)C)ccc(N5C[C@H](CS(C)(=O)=O)[C@H]5C)c4cn3)n2)C[C@@H]1N` (single isomer, unassigned) [Compound 89], the IC50 on EGFR (L858R T790M C797S) is at most 15 nM; in assay [1] (setting [2]), at most 10 nM.

Turning to `CC(C)c1cnc(N2CC([C@H](C)S(C)(=O)=O)C2)c2cnc(Nc3ccnc(N4CC[C@@H](O)[C@@](C)(F)C4)n3)cc12` (single isomer, unassigned) [Compound 126], the IC50 at EGFR (L858R T790M C797S) is at most 15 nM; in assay [1] (setting [2]), at most 10 nM.

For the compound `C[C@H](CO)c1ccc(N2CC(CS(C)(=O)=O)C2)c2cnc(Nc3ccnc(N4CCC5(CCO5)CC4)n3)cc12` (single isomer, unassigned) [Compound 87, (2S)-2-{8-[3-(methanesulfonylmethyl)azetidin-1-yl]-3-[(2-{1-oxa-7-azaspiro[3,5]nonan-7-yl}pyrimidin-4-yl)amino]isoquinolin-5-yl}propan-1-ol or (2R)-2-{8-[3-(methanesulfonylmethyl)azetidin-1-yl]-3-[(2-{1-oxa-7-azaspiro[3.5]nonan-7-yl}pyrimidin-4-yl)amino]isoquinolin-5-yl}propan-1-ol], the IC50 on EGFR (L858R T790M C797S) is at most 15 nM; in assay [1] (setting [2]), 20.1 to 30 nM.

For the compound `CO[C@@H]1CCN(c2nccc(Nc3cc4c(C(C)C)ccc(N5CC(CS(C)(=O)=O)C5)c4cn3)n2)C[C@@H]1F` [Compound 64, N-(2-((3S,4R)-3-fluoro-4-methoxypiperidin-1-yl)pyrimidin-4-yl)-5-isopropyl-8-(3-(methylsulfonylmethyl)azetidin-1-yl)isoquinolin-3-amine], the IC50 was at most 15 nM at EGFR (L858R T790M C797S) and at most 10 nM in assay [1] (setting [2]).

As for `CC(C)c1ncc(N2C[C@H](CS(C)(=O)=O)[C@H]2C)c2cnc(Nc3ccnc(N4CC[C@H](OCC(C)(C)O)[C@H](F)C4)n3)cc12` [Compound 257, 1-{[(3R,4S)-3-fluoro-1-[4-({8-[(2R,3S)-3-(methanesulfonylmethyl)-2-methylazetidin-1-yl]-5-(propan-2-yl)-2,6-naphthyridin-3-yl}amino)pyrimidin-2-yl]piperidin-4-yl]oxy}-2-methylpropan-2-ol], the IC50 on EGFR (L858R T790M C797S) lay within 15.1 to 20 nM; in assay [1] (setting [2]), 10.1 to 20 nM.

Regarding `CC(C)c1ccc(N2C[C@H](CS(C)(=O)=O)[C@H]2C)c2cnc(Nc3ccnc(N4CCN(C)CC4)n3)cc12` [Compound 16, 8-[(2R,3S)-3-(methanesulfonylmethyl)-2-methylazetidin-1-yl]-N-[2-(4-methylpiperazin-1-yl)pyrimidin-4-yl]-5-(propan-2-yl)isoquinolin-3-amine], the IC50 lay within 20.1 to 30 nM on EGFR (L858R T790M C797S) and 10.1 to 20 nM in assay [1] (setting [2]).

Consider `CC(C)c1ccc(N2CC(CS(C)(=O)=O)C2)c2cnc(Nc3ccnc(N4CC5CCC(C4)O5)n3)cc12` [Compound 12, 8-[3-(methanesulfonylmethyl)azetidin-1-yl]-N-(2-{8-oxa-3-azabicyclo[3.2.1]octan-3-yl}pyrimidin-4-yl)-5-(propan-2-yl)isoquinolin-3-amine], for which the IC50 at EGFR (L858R T790M C797S) was at most 15 nM; in assay [1] (setting [2]) it was 30.1 to 50 nM.

Consider `CO[C@@H]1CCN(c2nccc(Nc3cc4c(C(C)C)cnc(N5C[C@H](CS(C)(=O)=O)[C@H]5C)c4cn3)n2)C[C@@H]1F` [Compound 132, N-{2-[(3S,4R)-3-fluoro-4-methoxypiperidin-1-yl]pyrimidin-4-yl}-8-[(2R,3S)-3-(methanesulfonylmethyl)-2-methylazetidin-1-yl]-5-(propan-2-yl)-2,7-naphthyridin-3-amine], for which the figures for the IC50 (on EGFR (L858R T790M C797S); in assay [1] (setting [2])) were at most 15 nM and at most 10 nM, respectively.

Regarding `CC(C)c1ccc(N2C[C@H](CS(C)(=O)=O)[C@H]2C)c2cnc(Nc3ccnc(N4CC[C@H](O)C[C@@H]4C)n3)cc12` (single isomer, unassigned) [Compound 48, (2R,4R)-1-[4-({8-[(2R,3S)-3-(methanesulfonylmethyl)-2-methylazetidin-1-yl]-5-(propan-2-yl)isoquinolin-3-yl}amino)pyrimidin-2-yl]-2-methylpiperidin-4-ol or (2S,4S)-1-[4-({8-[(2R,3S)-3-(methanesulfonylmethyl)-2-methylazetidin-1-yl]-5-(propan-2-yl)isoquinolin-3-yl}amino)pyrimidin-2-yl]-2-methylpiperidin-4-ol], the IC50 at EGFR (L858R T790M C797S) is at most 15 nM; in assay [1] (inhibition of phosphorylation of mutant EGFR in NCI-H1975 cells), at most 10 nM.

Consider `CCS(=O)(=O)CC1CN(c2ccc(C(C)C)c3cc(Nc4ccnc(N5CC[C@@H](OC)[C@@H](F)C5)n4)ncc23)C1` [Compound 261, 8-{3-[(ethanesulfonyl)methyl]azetidin-1-yl}-N-{2-[(3S,4R)-3-fluoro-4-methoxypiperidin-1-yl]pyrimidin-4-yl}-5-(propan-2-yl)isoquinolin-3-amine], for which the IC50 on EGFR (L858R T790M C797S) is at most 15 nM; in assay [1] (setting [2]), at most 10 nM.

In the case of `C[C@@H]1[C@@H](CS(C)(=O)=O)CN1c1cccc2cc(Nc3ccnc(N4C[C@@H](F)[C@@H](O)[C@](C)(F)C4)n3)ncc12` (single isomer, unassigned) [Compound 35, (3R,4R,5R)-3,5-difluoro-1-[4-({8-[(2R,3S)-3-(methanesulfonylmethyl)-2-methylazetidin-1-yl]isoquinolin-3-yl}amino)pyrimidin-2-yl]-3-methylpiperidin-4-ol or (3S,4S,5S)-3,5-difluoro-1-[4-({8-[(2R,3S)-3-(methanesulfonylmethyl)-2-methylazetidin-1-yl]isoquinolin-3-yl}amino)pyrimidin-2-yl]-3-methylpiperidin-4-ol], the IC50 on EGFR (L858R T790M C797S) is at most 15 nM; in assay [1] (setting [2]), 30.1 to 50 nM.

For `CCS(=O)(=O)C[C@@H]1CN(c2ncc(C(C)C)c3cc(Nc4ccnc(N5CC[C@@H](O)[C@@](C)(F)C5)n4)ncc23)[C@H]1C` (single isomer, unassigned) [Compound 189], the IC50 on EGFR (L858R T790M C797S) was at most 15 nM; in assay [1] (setting [2]) it was at most 10 nM.

Regarding `CO[C@@H]1[C@H](O)CN(c2nccc(Nc3cc4c(C(C)C)ccc(N5CC(CS(C)(=O)=O)C5)c4cn3)n2)CC1(F)F` (single isomer, unassigned) [Compound 218, rac-5,5-difluoro-1-[4-[[5-isopropyl-8-[3-(methylsulfonylmethyl)azetidin-1-yl]-3-isoquinolyl]amino]pyrimidin-2-yl]-4-methoxy-piperidin-3-ol], the IC50 is at most 15 nM at EGFR (L858R T790M C797S) and at most 10 nM in assay [1] (setting [2]).
